Reference: PubChem BioAssay AID504645 (Southern Research Specialized Biocontainment Screening …, 2011)
Several values for one entry are separate records, joined by “and”; a condition that tells them apart may be missing. Equal values may be shown once. Activity calls are given as the source filed them. The rule behind the calls is not given here. Where a SMILES comes first, the peptide text is derived from it. The star is where a group is joined. Cbz = O=C(OCc1ccccc1)*

Assays:
[1] = test system: M. tuberculosis H37Rv growth inhibition, glycerol-free medium; experiment: M tuberculosis H37Rv growth inhibition in absence of glycerol, confirmatory, IC90 (AID 504645); conditions: for IC90: measured here: 90% growth inhibition;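 for all read-outs here: bacteria grown one week before the viability dye was added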
[2] = as above; conditions: M. tuberculosis H37Rv growth inhibition, glycerol-free medium; at 25 µM (top of the series)

Row | SMILES | IC50 [1] | IC90 [1] | inhibition [2]
1 | Cc1ccc2ccc3ccc(C)nc3c2n1 | 530 nM | 780 nM | 
2 | O=C(C1CCC(CNc2c(N3CCCCC3)c(=O)c2=O)CC1)N1CCCCC1 (stereo not drawn) |  |  | 1.49% (inactive)
3 | CCOC(=O)CNC(=O)[C@H](Cc1ccccc1)NC(=O)OCc1ccccc1 (Cbz-Phe-Gly-OEt) | 2150 nM | 3090 nM | 
4 | COc1ccc(-c2noc(CSc3nc(N)c(-c4ccccc4)c(=O)[nH]3)n2)cc1OC |  |  | 3.69% (inactive)
5 | CCc1ccc(/C=C2/C(=O)N(C)C(=S)N2CC(=O)OC)s1 | 1910 nM | 4610 nM | 
6 | CCOC(=O)COn1c2c(c3c4no[n+]([O-])c4ccc31)CCCC2 | 1850 nM | 2860 nM | 
7 | S=c1nc[nH]c2nc[nH]c12 | 1480 nM | 1720 nM | 
8 | Cc1cc(=O)[nH]c(=S)[nH]1 |  |  | 3.98% (inactive)
9 | Cc1cccc(-c2oc3ccc(-c4ccc5c(c4)OCO5)cc3c2C#Cc2cncn2C)c1 | 1380 nM | 1860 nM | 
10 | CCOC(=O)CSc1ncnc2c1cnn2-c1ccc(Cl)cc1 | 4980 nM | > 25000 nM | 
11 | CCc1c(O)nc(SCC(=O)Nc2ccc(OC)cc2)n(C2CCCCC2)c1=O |  |  | 2.43% (inactive)
12 | O=C(CSc1nc2ccccc2c(=O)[nH]1)NCc1ccc(Cl)cc1 | 630 nM and 2190 nM | 900 nM and 3160 nM | 
13 | O=C(NCC1COc2ccccc2O1)C1CCC(CNc2c(N3CCCCC3)c(=O)c2=O)CC1 (stereo not drawn) |  |  | 4.5% (inactive)
14 | CC1CCN(C(=O)CSc2nc3ccccc3c(=O)[nH]2)CC1 |  |  | -0.18% (inactive)
15 | CCC(Sc1ncnc2c1nnn2-c1ccc(F)cc1)C(=O)OC (stereo not drawn) | 11900 nM | > 25000 nM | 
16 | CCOc1ccc2nc(NC(=O)C(CC)Sc3nc(C)cc(=O)[nH]3)sc2c1 (stereo not drawn) |  |  | 4.79% (inactive)
17 | O=C(/C=C/c1ccccc1)N1CCN(CCN2C(=O)c3cccc4cccc(c34)C2=O)CC1 | 2070 nM | 5380 nM | 
18 | CCc1cc(=O)[nH]c(SCC(=O)Nc2ccc3c(c2)OCCO3)n1 |  |  | 5.24% (inactive)
19 | CCCc1cc(=O)[nH]c(SCC(=O)Nc2cc3c(cc2C(C)=O)OCO3)n1 |  |  | 9.03% (inactive)
20 | CCOC(=O)N1CCC(Nc2c(N3CCN(c4cccc(C(F)(F)F)c4)CC3)c(=O)c2=O)CC1 |  |  | 3.78% (inactive)
21 | Cc1nc(SCC(=O)N(C)c2ccccc2)[nH]c(=O)c1C |  |  | -1.39% (inactive)
22 | Cc1ccc2c(c1)c(C1=c3ccccc3=NC1=O)c(O)n2C | 1460 nM | 3610 nM | 
23 | COC(=O)C(C)Oc1ccc(Cc2ncc(C(F)(F)F)cc2Cl)cc1 (stereo not drawn) | 2620 nM | 4010 nM | 

Row | SMILES | IC50 [1] | IC90 [1] | inhibition [2]
24 | Cc1ccc(NC(=O)CSc2nc(N)cc(=O)[nH]2)cc1Cl |  |  | 10.7% (inactive)
25 | Cc1cccc(N2CCN(C(=O)c3ccc(CNc4c(N5CCC(C)CC5)c(=O)c4=O)cc3)CC2)c1C |  | > 25000 nM | 
26 | Cc1cc(Br)ccc1NC(=O)c1cnc(N2CCN(c3ccccn3)CC2)c2ccccc12 | 1250 nM | 2000 nM | 
27 | CCSc1nc2ccccc2c(=O)[nH]1 |  |  | 4.69% (inactive)
28 | CC1CC(C)CN(C(=O)c2ccc(CNc3c(N4CCCC4)c(=O)c3=O)cc2)C1 (stereo not drawn) | 6340 nM | > 25000 nM | 
29 | CCOc1ccc(NC(=O)CSc2nc(N)c(-c3ccccc3)c(=O)[nH]2)cc1 |  |  | 2.14% (inactive)
30 | COc1ccc(N2CCN(C(=O)c3ccc(CNc4c(N5CCOCC5)c(=O)c4=O)cc3)CC2)cc1 | 3410 nM | > 25000 nM | 
31 | Cc1[nH]c(=S)[nH]c(=O)c1C |  |  | -1.69% (inactive)
32 | COC(=O)C1CC(=O)N(c2ccc(OCc3ccccc3Cl)cc2)C1 (stereo not drawn) | 750 nM | 3010 nM | 
33 | O=c1[nH]c(=S)[nH]c2ccccc12 |  |  | -4.53% (inactive)
34 | O=C(NCCc1ccc(Cl)cc1)c1ccc(CNc2c(N3CCOCC3)c(=O)c2=O)cc1 | 5060 nM | 6950 nM | 
35 | Cc1nn2c(NCc3ccccn3)cc(C(C)C)nc2c1-c1ccccc1 | 1970 nM | 2540 nM | 
36 | Cc1cccc(N2CCN(C(=O)c3ccc(CNc4c(N5CCC(C)CC5)c(=O)c4=O)cc3)CC2C)c1 (stereo not drawn) |  |  | 4.48% (inactive)
37 | O=C(CSc1ncccn1)NC1CCCCC1 |  |  | 2.15% (inactive)
38 | CCOc1ccc(-c2cc(C)[n+](CCc3ccc(OC)c(OC)c3)c(-c3ccc(OCC)cc3)c2)cc1 | 660 nM | 1030 nM | 
39 | O=C(CSc1ccccn1)NC1CCCCC1 |  |  | 5.28% (inactive)
40 | CC1CCN(C(=O)C2CCN(c3nnc(-n4cccc4)s3)CC2)CC1 | 1640 nM | 3340 nM | 
41 | O=C1C(Br)=Cc2cccc3cccc1c23 | 350 nM | 1130 nM | 
42 | O=C(c1ccc(CNc2c(N3CCCC3)c(=O)c2=O)cc1)N1CCc2ccccc2C1 | 4370 nM | > 25000 nM | 
43 | Cc1nc(SCC(=O)NC2CCCC2)[nH]c(=O)c1C | 9960 nM | 16000 nM | 
44 | Cc1nc(SCC(N)=O)[nH]c(=O)c1C |  |  | 2.85% (inactive)
45 | Cc1c[nH]c(=S)[nH]c1=O |  |  | 3.09% (inactive)
46 | Nc1c(C(=O)NC2CCCCC2)nsc1C(=O)OCC(=O)NC1CCCCC1 | 1230 nM | 2640 nM | 

Row | SMILES | IC50 [1] | IC90 [1] | inhibition [2]
47 | CCOC(=O)COc1ccc(/C=C2\NC(=S)N(CC)C2=O)cc1 | 2620 nM | 4740 nM | 
48 | CCOc1ccc(NC(=O)CSc2nc(O)c(C)c(=O)n2-c2ccc(F)cc2)cc1 |  | > 25000 nM | 
49 | CCc1c(C)nc(SCC(=O)Nc2ccc3c(c2)OCCO3)[nH]c1=O | 19400 nM | > 25000 nM | 
50 | c1ccc(/N=C2\N=C(Nc3ccccn3)c3ccccc32)nc1 | 170 nM | 290 nM | 
51 | CC(=O)c1ccc(NC(=O)c2ccc(CNc3c(N4CCOCC4)c(=O)c3=O)cc2)cc1 | 20000 nM | > 25000 nM | 
52 | CCOC(=O)CSc1ncnc2c1cnn2-c1ccc(C)cc1C | 4490 nM | 6980 nM | 
53 | C=CCn1c(SCC(=O)Nc2cccc3ccccc23)nc(O)c(CC)c1=O |  |  | 6.9% (inactive)
54 | CCOC(=O)C(CC)Sc1ncnc2c1nnn2-c1ccc(F)cc1 (stereo not drawn) |  |  | 14.7% (inactive)
55 | CCOC(=O)C(C)Sc1ncnc2c1nnn2-c1ccc(F)cc1 (stereo not drawn) | 1200 nM and 4550 nM | 2920 nM and 8280 nM | 
56 | CCC(C)Nc1ccc(NC(C)CC)cc1 (stereo not drawn) | 1270 nM | 1940 nM | 
57 | O=C(c1ccc(CNc2c(N3CCOCC3)c(=O)c2=O)cc1)N1CC=C(c2ccccc2)CC1 | 1110 nM | 2170 nM | 
58 | CC1CCCN(C(=O)c2ccc(CNc3c(N4CCCCC4)c(=O)c3=O)cc2)C1 (stereo not drawn) | 2580 nM | > 25000 nM | 
59 | CCOC(=O)c1ccc(NC(=O)Cn2ncc(Cl)c(Cl)c2=O)cc1 | 440 nM | 1170 nM | 
60 | Cc1ccc(NC(=O)C2C3/C=C\CCCCC32)cc1C (stereo not drawn) | 1720 nM | > 25000 nM | 
61 | CC1CC(C)CN(C(=O)C2CCC(CNc3c(N4CCCCC4)c(=O)c3=O)CC2)C1 (stereo not drawn) | 13300 nM | > 25000 nM | 
62 | O=C(c1ccc(CNc2c(N3CCCC3)c(=O)c2=O)cc1)N1CC=C(c2ccccc2)CC1 | 2520 nM | 6760 nM | 
63 | CNc1nc(SCc2ccccc2Cl)nc2c1CCCC2 | 1080 nM | 2330 nM | 
64 | O=C(CSc1nc2ccccc2c(=O)[nH]1)NC1CCCCC1 | 70 nM | 130 nM | 
65 | COc1ccc(-n2nnc3c(SCC(=O)OCc4ccccc4)ncnc32)cc1 | 2810 nM | > 25000 nM | 
66 | Cc1cccc(/C=C/C(=O)c2ccc([N+](=O)[O-])o2)c1 | 450 nM | 650 nM | 
67 | CC(=NCc1ccc2c(c1)OCO2)C1=C(O)c2ccccc2C1=O | 330 nM | 2350 nM | 
68 | CCOC(=O)CSc1ncnc2c1cnn2-c1ccc(C)cc1 | 10100 nM | > 25000 nM | 
69 | O=C(NCC(c1cccs1)N1CCOCC1)c1cc([N+](=O)[O-])cc([N+](=O)[O-])c1 (stereo not drawn) | 410 nM | 910 nM | 

Row | SMILES | IC50 [1] | IC90 [1] | inhibition [2]
70 | CC(C)OC(=O)CSc1ncnc2c1cnn2-c1ccccc1 | 17900 nM | > 25000 nM | 
71 | CCOC(=O)CSc1ncnc2c1nnn2-c1ccc(F)cc1 | 3640 nM | 6160 nM | 
72 | CCOC(=O)CSc1ncnc2c1cnn2-c1ccccc1 | 13100 nM | > 25000 nM | 
73 | COc1cc(NC(=O)C/C(C)=N/NC(=O)c2ccccn2)c(OC)cc1Cl | 2780 nM | 7910 nM | 
74 | COC(=O)CCc1nc2c(C#N)c(-c3ccc(Cl)cc3)ccn2n1 | 2540 nM | 3800 nM | 
75 | CCc1c(C)nc(SCC(=O)NC2CCCC2)[nH]c1=O | 2250 nM | 3210 nM | 
76 | O=C(CSc1nc2c(c(=O)[nH]1)CCC2)Nc1ccc(F)cc1 | 17100 nM | > 25000 nM | 
77 | COC(=O)C(C)Sc1ncnc2c1nnn2-c1ccc(F)cc1 (stereo not drawn) | 2420 nM | 4380 nM | 
78 | O=C(/C=C\c1cccs1)N1CCN(Cc2ccc3c(c2)OCO3)CC1 | 360 nM | 1570 nM | 
79 | CC1CCN(C(=O)c2ccc(CNc3c(N4CCCC4)c(=O)c3=O)cc2)CC1 | 5850 nM | 6690 nM | 
80 | CCOC1OC(=O)C(Cl)=C1Nc1ccccc1C (stereo not drawn) | 2260 nM | 5590 nM | 
81 | Cc1ccc(NC(=O)COC(=O)CCc2c[nH]c3ccccc23)cc1[N+](=O)[O-] | 1920 nM | 4350 nM | 
82 | CC[N+](C)(CC)CCCCOc1ccc2c(c1)C(=O)c1cc(OCCCC[N+](C)(CC)CC)ccc1-2 | 1320 nM | 2130 nM | 
83 | O=C(c1ccc(CNc2c(N3CCCC3)c(=O)c2=O)cc1)N1CCN(C2CCCCC2)CC1 |  | > 25000 nM | 
84 | Cc1cc(C)n2nc(N)c(N=Nc3ccccc3)c2n1 | 2490 nM | 3560 nM | 
85 | COC(=O)c1cc(=O)n(-c2ccc(F)cc2)c(=Nc2ccc(F)cc2)s1 | 640 nM | 1000 nM | 
86 | COC(=O)CSc1ncnc2c1cnn2-c1ccc(C)cc1C | 4500 nM | 6950 nM | 
87 | CC(C)CCNC(=O)CSc1nc2ccccc2c(=O)[nH]1 | 2310 nM | 3830 nM | 
88 | CC1CCCN(C(=O)C2CCC(CNc3c(N4CCCCC4)c(=O)c3=O)CC2)C1 (stereo not drawn) | 19000 nM | > 25000 nM | 
89 | Cc1ccc(C(=O)N/N=C(/CC(=O)c2cccs2)C(F)(F)F)cc1 | 2100 nM | 2810 nM | 
90 | COC(=O)C(C)Oc1ccc(-c2nccc(-c3ccccn3)n2)cc1 (stereo not drawn) | 2640 nM | 4530 nM | 
91 | Cc1nc(SCC(=O)NC2CCCCC2)[nH]c(=O)c1C | 670 nM and 2390 nM | 1070 nM and 3730 nM | 
92 | CC(C)NC(=O)c1sc(=S)n2c1[nH]c(=O)c1ccc(C(=O)NCCc3ccc(Cl)cc3)cc12 | 310 nM | 530 nM | 
